PubChem BioAssay (NCI)
“And” between values parts separate entries of the source, which are not always exact repeats. Equal values may be shown once.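 Protocol summary: plate cells (96-well), add compound at 5 concentrations, incubate 48 h, interpolate endpoints linearly. The concentration for 50% growth inhibition is given as GI50. TGI denotes the concentration required for complete inhibition of growth.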

Assays:
Experiment in all cases: NCI tumour cell line growth inhibition, 48 h
KM12 colon = tested on: KM12 colon
SR leukemia = tested on: SR leukemia
M14 melanoma = tested on: M14 melanoma
A549 NSCLC = tested on: A549 NSCLC
PC-3 prostate = tested on: PC-3 prostate
OVCAR-4 ovarian = tested on: OVCAR-4 ovarian
RPMI-8226 leukemia = tested on: RPMI-8226 leukemia
TK-10 renal = tested on: TK-10 renal
SF-539 CNS = tested on: SF-539 CNS
SNB-75 CNS = tested on: SNB-75 CNS

Compound	TGI (KM12 colon)	TGI (SR leukemia)	TGI (M14 melanoma)	TGI (A549 NSCLC)	TGI (PC-3 prostate)	TGI (OVCAR-4 ovarian)	TGI (RPMI-8226 leukemia)	TGI (TK-10 renal)	TGI (SF-539 CNS)	TGI (SNB-75 CNS)	GI50 (KM12 colon)	GI50 (SR leukemia)	GI50 (M14 melanoma)	GI50 (PC-3 prostate)	GI50 (OVCAR-4 ovarian)	GI50 (RPMI-8226 leukemia)	GI50 (TK-10 renal)	GI50 (SF-539 CNS)	GI50 (SNB-75 CNS)	GI50 (A549 NSCLC)
Cc1c(NC(=O)Nc2c(Cl)cccc2Cl)c(=O)n(-c2ccccc2)n1C	> 100 µM	> 100 µM	> 100 µM	> 100 µM	> 100 µM	> 100 µM	> 100 µM	> 100 µM	> 100 µM	> 100 µM										
CC(C)c1[nH]nc2c(NCc3ccc(-c4ccccn4)cc3)nc(SCCN(C)C)nc12	6.07 µM	3.21 µM	0.122 µM	13 µM	3.81 µM	1.53 µM	0.101 µM	11.9 µM	0.242 µM	0.138 µM	< 0.0159 µM	< 0.0294 µM	< 0.0133 µM	0.0313 µM	0.0349 µM	0.0195 µM	0.0456 µM	0.0745 µM	0.0223 µM	
C#CCOc1cccc(Nc2ncnc3cc(NC(=O)C=C)ccc23)c1	> 100 µM	> 100 µM	> 100 µM	> 100 µM	> 100 µM	> 100 µM	38.8 µM	35.6 µM	14 µM		10.4 µM	2.11 µM	6.46 µM	8.36 µM	29.6 µM	4.56 µM	4.05 µM	2.89 µM		9.44 µM
CC(=O)CCc1ccc(Oc2c3c(nc4ccccc24)OCC3)cc1	> 100 µM	> 100 µM	> 100 µM	> 100 µM	> 100 µM	> 100 µM	> 100 µM		> 100 µM	61.7 µM	> 100 µM	60.2 µM	> 100 µM	82.3 µM	> 100 µM	67.7 µM		85.7 µM	14.3 µM	11.7 µM
O=C(O)/C(Cl)=C(Cl)/C=N/NC(=O)c1cc2ccccc2cc1O	> 100 µM	39.3 µM	56 µM	> 100 µM		72 µM	> 100 µM	> 100 µM	> 100 µM	> 100 µM										
CCC[n+]1cc2cc3c(cc2c2c1-c1cc4c(cc1C2)OCO4)OCO3 (tested in a mixture with another compound)	5.33 µM	1.75 µM	7.81 µM	> 52.4 µM	7.16 µM	5.9 µM	5.5 µM	38.6 µM	2.88 µM	1.38 µM	0.374 µM	0.287 µM	2.49 µM	0.986 µM	0.853 µM	0.545 µM	4.11 µM	0.425 µM	0.403 µM	2.77 µM
C=CCC(N[C@H](CO)c1ccccc1)c1ccccn1 (stereo partly specified)	> 100 µM	> 100 µM	> 100 µM	> 100 µM	> 100 µM	> 100 µM	> 100 µM	> 100 µM	> 100 µM	> 100 µM	> 100 µM	> 100 µM	> 100 µM	> 100 µM	> 100 µM	> 100 µM	> 100 µM	> 100 µM	> 100 µM	> 100 µM
CNCC(=O)NC(CO)C(=O)NC(CO)C(=O)NC1C(C(N)=O)OC(n2ccc(N)nc2=O)C(O)C1O (stereo unspecified)	> 50 µg/mL	> 50 µg/mL	35.3 µg/mL	> 50 µg/mL	47.5 µg/mL	3.41 µg/mL	> 50 µg/mL	> 50 µg/mL	28.7 µg/mL	8.92 µg/mL	20.3 µg/mL	16.8 µg/mL	9.22 µg/mL	10.2 µg/mL	0.495 µg/mL	> 50 µg/mL	11 µg/mL	5.01 µg/mL	1.27 µg/mL	17 µg/mL
Cn1c2c(c3ccccc3c1=O)C(=O)c1ccccc1-2	> 100 µM	> 100 µM	> 100 µM	> 100 µM	> 100 µM	> 100 µM	> 100 µM	> 100 µM	59.1 µM	> 100 µM										
COc1cc(C2c3cc4c(cc3[C@@H](Nc3ccc([N+](=O)[O-])cc3)C3COC(=O)[C@H]23)OCO4)cc(OC)c1O (stereo partly specified)	6.42 µM	0.802 µM and 2.18 µM	12.7 µM	3.72 µM	> 100 µM	62.4 µM	7.22 µM	6.97 µM	3.79 µM	0.836 µM and 7.83 µM		0.045 µM	0.543 µM			0.256 µM		0.734 µM	0.333 µM	0.157 µM and 0.166 µM
OC(CN1CCCC2CCCCC21)c1cc2ccccc2c2ccccc12 (stereo unspecified)	4.04 µM	3.43 µM	2.86 µM	19.1 µM	10.1 µM	12.4 µM	3.87 µM	7.66 µM	4.74 µM	6.83 µM	1.87 µM	1.6 µM	1.52 µM	2.27 µM	2.39 µM	1.6 µM	2.3 µM	1.99 µM	1.9 µM	4.65 µM
COc1cccc(N2CCN(c3ncnc4cc[nH]c34)CC2)c1	85 µM	> 100 µM	26.3 µM	> 100 µM	> 100 µM	> 100 µM	94.8 µM	> 100 µM	> 100 µM	60.4 µM	9.8 µM	1.73 µM	3.76 µM	6.99 µM	1.73 µM	2.78 µM	25.5 µM	20.8 µM	15.1 µM	12.2 µM
NC(Cc1cccnn1)C(=O)O (stereo unspecified)	> 100 µM	> 100 µM	> 100 µM	> 100 µM	> 100 µM	> 100 µM	> 100 µM	> 100 µM	> 100 µM	> 100 µM										
O=C1C(Cl)=C(Nc2cc(Cl)ccc2O)C(=O)N1Cc1ccccc1	48.2 µM	> 67.7 µM	33.3 µM	36.7 µM	32.6 µM	38.1 µM	39.5 µM	42.9 µM	36.3 µM	64.6 µM	22 µM	38.6 µM	17.1 µM	16.3 µM	17.2 µM	11.9 µM	21.4 µM	20 µM	27.5 µM	17 µM
C[C@H]1COCCN1c1nc(-c2cnc(N)cc2C(F)F)nc(N2CCOCC2)n1	41 µM	29.1 µM	29.7 µM	> 100 µM	> 100 µM		4.91 µM	0.815 µM	1.45 µM	0.354 µM	0.318 µM	0.275 µM	0.129 µM	0.0985 µM	0.174 µM	0.134 µM	0.0866 µM	0.235 µM	0.0355 µM	0.199 µM
Cc1nc2sc(C(=O)Nc3ccccc3)c(N)c2cc1C(O)c1ccccc1 (stereo unspecified)	> 44 µM	> 30.5 µM	15.2 µM	> 100 µM	> 71 µM	> 100 µM	11.7 µM	> 100 µM	0.638 µM	> 72.8 µM	0.344 µM	0.0434 µM	0.182 µM	0.427 µM	0.833 µM	0.417 µM	6.03 µM	0.219 µM	0.244 µM	0.421 µM
COC(=O)C(=O)C(C(C)=O)C(=O)NCc1ccccc1 (stereo unspecified)	> 100 µM	> 100 µM	> 100 µM	> 100 µM		> 100 µM	> 100 µM	> 100 µM	> 100 µM	> 100 µM										

Compound	TGI (KM12 colon)	TGI (SR leukemia)	TGI (M14 melanoma)	TGI (A549 NSCLC)	TGI (PC-3 prostate)	TGI (OVCAR-4 ovarian)	TGI (RPMI-8226 leukemia)	TGI (TK-10 renal)	TGI (SF-539 CNS)	TGI (SNB-75 CNS)	GI50 (KM12 colon)	GI50 (SR leukemia)	GI50 (M14 melanoma)	GI50 (PC-3 prostate)	GI50 (OVCAR-4 ovarian)	GI50 (RPMI-8226 leukemia)	GI50 (TK-10 renal)	GI50 (SF-539 CNS)	GI50 (SNB-75 CNS)	GI50 (A549 NSCLC)
COc1ccc(/C=C2\COc3ccc(O)c(O)c3C2=O)cc1OC		10.7 µM	3.31 µM	> 100 µM	6.82 µM	13.3 µM	1.51 µM	27.6 µM	3.03 µM	29.1 µM		0.537 µM	1.43 µM	1.53 µM	1.61 µM	0.336 µM	2.66 µM	1.57 µM	1.98 µM	2.6 µM
O=C1NC2(CCCCC2)C2CCCCC=C12 (stereo unspecified)	> 100 µM	> 100 µM	> 100 µM	> 100 µM		> 100 µM	> 100 µM	> 100 µM	> 100 µM	> 100 µM										
CC(=O)c1ccc2c3c1[C@H]1O[C@H]1c1cccc(c1-3)[C@@H]1O[C@H]21	5.31 µM	> 100 µM	3.38 µM	9.32 µM		3.59 µM	8.35 µM	> 51.2 µM		6.12 µM										
CCCCCCCCC(C)CCCCCCCCC(=O)OCC(COP(=O)([O-])OCC[N+](C)(C)C)OC(=O)CCCCCCCCC(C)CCCCCCCC (stereo unspecified)	> 100 µM	> 100 µM	> 100 µM	> 100 µM		> 100 µM	> 100 µM	> 100 µM		> 100 µM										
O=C(COC(=O)c1cccc2c(=O)c3ccccc3[nH]c12)Nc1ccc(Cl)cc1	> 100 µM	> 100 µM	> 100 µM	> 100 µM		> 100 µM		46.5 µM	> 100 µM	78.6 µM										
CC(C)N1C(C)[C@@H](c2ccccc2)O[P@@]1(=O)CC1=CCCCC1 (stereo partly specified)	> 100 µM	> 100 µM	> 100 µM	> 100 µM			> 100 µM	> 100 µM	> 100 µM	> 100 µM										
C=C(C)C1CCC2=CC(CC3(C)OC3C3=CC(C(=O)OC)=C(C1)O3)OC2=O (stereo unspecified)	> 100 µM	> 100 µM	> 100 µM	> 100 µM	> 100 µM			> 100 µM	> 100 µM	> 100 µM										
O=C(NCCCl)Nc1ccccc1	> 100 µM	> 100 µM		> 100 µM	> 100 µM	> 100 µM	> 100 µM			> 100 µM										
CCOC(=O)/C(C#N)=C\Sc1ccccc1	> 100 µM	45.2 µM	35.6 µM	> 100 µM		> 100 µM	> 100 µM	> 100 µM	30.1 µM	53.9 µM										
CCC[CH2][Sn]([CH2]CCC)([O]C(=O)c1cc(F)ccc1F)[O]C(=O)c1cc(F)ccc1F	3.28 µM	8.74 µM	2.81 µM	21 µM		2.95 µM		3.01 µM	2.81 µM	2.49 µM	1.6 µM	0.502 µM	1.47 µM		1.58 µM		1.64 µM	1.4 µM	1.13 µM	7.72 µM
C(=C\c1ccncc1)/c1ccncc1	> 100 µM	> 100 µM	> 100 µM	> 100 µM	> 100 µM	> 100 µM		> 100 µM	> 100 µM	> 100 µM	> 100 µM	> 100 µM	> 100 µM	> 100 µM	> 100 µM		> 100 µM	> 100 µM	> 100 µM	> 100 µM
O=[N+]([O-])c1cccc(S(=O)(=O)N/N=C/c2cc(I)cc([N+](=O)[O-])c2O)c1	> 100 µM	60.9 µM	77 µM	> 100 µM		> 100 µM	86.2 µM	95.2 µM	48.5 µM	67.2 µM										
CCCS(=O)c1nc(COC(=O)NC)c(COC(=O)NC)n1C (stereo unspecified)	> 100 µM	> 100 µM	> 100 µM	> 100 µM		> 100 µM	> 100 µM		> 100 µM	> 100 µM										
O=C(NCc1ccco1)C1CCN(S(=O)(=O)c2ccc(Cl)cc2)CC1	> 100 µM	> 100 µM		> 100 µM	> 100 µM	> 100 µM	> 100 µM	> 100 µM	> 100 µM	> 100 µM	> 100 µM	72.8 µM		73.8 µM	54.9 µM	94.9 µM	> 100 µM	> 100 µM	> 100 µM	78.3 µM
CN(C)CCNC(=O)c1cccc2c1Oc1cccc([N+](=O)[O-])c1O2	44.7 µM	76.1 µM	30 µM	35.9 µM	29.8 µM			> 100 µM	40.1 µM	40.5 µM										
COc1cc2c3cc1Oc1c(OC)c(OC)cc4c1[C@@H](Cc1ccc(O)c(c1)Oc1ccc(cc1)C[C@@H]3N(C)CC2)N(C)CC4	27.7 µM	4.95 µM	16.7 µM	62 µM			41.5 µM	35.4 µM	13.1 µM	23.2 µM										
